In patent US7504035B2, “Treatment of putrescrible cakes” (United Utilities PLC, priority 2005, dated 2009):

How the values were obtained:
Assay type in all cases: cell-based
E. coli [1] = assay: E. coli content of raw sewage sludge cake (25.6% DS) treated with urea; settings: raw sewage sludge 25.6% DS
Experimental: Samples of raw sewage sludge cake with mean solids content of 25.6% were treated with various amounts of urea. The E. coli content (cfu/g dry weight) of the samples was monitored over a period.

E. coli [2] = assay: E. coli content of digested sludge cake (24.8% solids) treated with urea; settings: digested sewage sludge 24.8% solids
Experimental: Samples of digested sludge cake with mean solids content of 24.8% were treated with various amounts of urea. The E. coli content (cfu/g dry weight) of the samples was monitored over a period.

pathogens in the cake = assay: Pathogen deactivation in sewage sludge cake (general statement); settings: low concentration added to sewage sludge cake, particularly septic cake

Work on NC(N)=O [urea] yielded an E. coli content (E. coli [1]; 0.5% dose urea, day 0) of 1.36E+06 cfu/g dry weight, an E. coli content (E. coli [1]; 0.5% dose urea, day 1) of 7.58E+06 cfu/g dry weight and an E. coli content (E. coli [1]; 0.5% dose urea, day 8) of 1.32E+05 cfu/g dry weight. The E. coli content (E. coli [1]; 0.5% dose urea, day 14) was 1.18E+05 cfu/g dry weight, the E. coli content (E. coli [1]; 0.5% dose urea, day 22) was 4.55E+04 cfu/g dry weight and the E. coli content (E. coli [1]; 1.0% dose urea, day 0) was 1.39E+06 cfu/g dry weight. The E. coli content (E. coli [1]; 1.0% dose urea, day 1) was 6.15E+06 cfu/g dry weight, the E. coli content (E. coli [1]; 1.0% dose urea, day 8) was 3.25E+03 cfu/g dry weight and the E. coli content (E. coli [1]; 1.0% dose urea, day 14) was 9.58E+02 cfu/g dry weight. For the same compound, the E. coli content (E. coli [1]; 1.0% dose urea, day 22) was 3.35E+02 cfu/g dry weight, the E. coli content (E. coli [1]; 1.5% dose urea, day 0) was 1.23E+06 cfu/g dry weight and the E. coli content (E. coli [1]; 1.5% dose urea, day 1) was 1.30E+03 cfu/g dry weight. The E. coli content (E. coli [1]; 1.5% dose urea, day 8) was 9.03E+02 cfu/g dry weight, the E. coli content (E. coli [1]; 1.5% dose urea, day 14) was 2.09E+02 cfu/g dry weight and the E. coli content (E. coli [1]; 1.5% dose urea, day 22) was 1.00E+01 cfu/g dry weight. It also gave an E. coli content (E. coli [2]; 0.5% dose urea, day 0) of 4.67E+04 cfu/g dry weight, an E. coli content (E. coli [2]; 0.5% dose urea, day 1) of 1.86E+03 cfu/g dry weight and an E. coli content (E. coli [2]; 0.5% dose urea, day 4) of 1.21E+02 cfu/g dry weight. The E. coli content (E. coli [2]; 0.5% dose urea, day 7) was 1.94E+02 cfu/g dry weight, the E. coli content (E. coli [2]; 0.5% dose urea, day 14) was 3.90E+01 cfu/g dry weight and the E. coli content (E. coli [2]; 0.5% dose urea, day 50) was 5.40E+01 cfu/g dry weight. It also gave an E. coli content (E. coli [2]; 1.0% dose urea, day 0) of 1.79E+04 cfu/g dry weight, an E. coli content (E. coli [2]; 1.0% dose urea, day 1) of 6.97E+03 cfu/g dry weight and an E. coli content (E. coli [2]; 1.0% dose urea, day 4) of 7.90E+01 cfu/g dry weight. It also gave an E. coli content (E. coli [2]; 1.0% dose urea, day 7) of 7.90E+01 cfu/g dry weight, an E. coli content (E. coli [2]; 1.0% dose urea, day 14) of 1.34E+02 cfu/g dry weight and an E. coli content (E. coli [2]; 1.0% dose urea, day 50) of 1.85E+02 cfu/g dry weight. It also gave an E. coli content (E. coli [2]; 1.5% dose urea, day 0) of 1.19E+04 cfu/g dry weight, an E. coli content (E. coli [2]; 1.5% dose urea, day 1) of 4.57E+03 cfu/g dry weight and an E. coli content (E. coli [2]; 1.5% dose urea, day 4) of 3.70E+01 cfu/g dry weight. For the same compound, the E. coli content (E. coli [2]; 1.5% dose urea, day 7) was 1.54E+02 cfu/g dry weight, the E. coli content (E. coli [2]; 1.5% dose urea, day 14) was 7.90E+01 cfu/g dry weight and the E. coli content (E. coli [2]; 1.5% dose urea, day 50) was 4.10E+01 cfu/g dry weight. For the same compound, the “Pathogens in the cake” value (pathogens in the cake) was “quickly become deactivated”.
